Assay results taken from US9896481B2, “Modified mini-hepcidin peptides and methods of using thereof” (priority 2011, dated 2018).
Read-outs that look alike come from different tables or passages of the source. One block for each molecule: values may come before it. Starred links: 1 amine or outer side, 2 acyl side, 3 side chain; linkers in the order of their positions; H or OH if unused. Positions of bridges follow the written chain, without caps; N, C: chain ends. Non-standard residues stand in square brackets, D forms with d. Residues, ends and D or L forms follow the SMILES beside them. No end group written: not given here. *: point of attachment. PEG12 = NCCOCCOCCOCCOCCOCCOCCOCCOCCOCCOCCOCCOCCC(=O)O; X1 = O=C(C[C@H](N[*:1])C(c1ccccc1)c1ccccc1)[*:2]; dDip = N[C@@H](C(=O)O)C(c1ccccc1)c1ccccc1; Oic = O=C(O)[C@@H]1C[C@@H]2CCCC[C@@H]2N1; Dip = N[C@H](C(=O)O)C(c1ccccc1)c1ccccc1; Palmitoyl = CCCCCCCCCCCCCCCC(=O)*; X2 = O=C(C1CCC(CN[*:1])CC1)[*:2]; Cysteamide = C(CS[*:3])N[*:1]; Chg = N[C@H](C(=O)O)C1CCCCC1; Phg = N[C@H](C(=O)O)c1ccccc1; Tle = CC(C)(C)[C@H](N)C(=O)O; Inp = O=C(O)C1CCNCC1

Target: T1, ferroportin tagged at the C-terminus with green fluorescent protein (Fpn-GFP) (Mus musculus, UniProt Q9JHI9)
T1 construct: expressed in transfected cells; host or cells: ECR293/Fpn-GFP (stably transfected, ponasterone-inducible)
T1 sequence (Q9JHI9 1-570): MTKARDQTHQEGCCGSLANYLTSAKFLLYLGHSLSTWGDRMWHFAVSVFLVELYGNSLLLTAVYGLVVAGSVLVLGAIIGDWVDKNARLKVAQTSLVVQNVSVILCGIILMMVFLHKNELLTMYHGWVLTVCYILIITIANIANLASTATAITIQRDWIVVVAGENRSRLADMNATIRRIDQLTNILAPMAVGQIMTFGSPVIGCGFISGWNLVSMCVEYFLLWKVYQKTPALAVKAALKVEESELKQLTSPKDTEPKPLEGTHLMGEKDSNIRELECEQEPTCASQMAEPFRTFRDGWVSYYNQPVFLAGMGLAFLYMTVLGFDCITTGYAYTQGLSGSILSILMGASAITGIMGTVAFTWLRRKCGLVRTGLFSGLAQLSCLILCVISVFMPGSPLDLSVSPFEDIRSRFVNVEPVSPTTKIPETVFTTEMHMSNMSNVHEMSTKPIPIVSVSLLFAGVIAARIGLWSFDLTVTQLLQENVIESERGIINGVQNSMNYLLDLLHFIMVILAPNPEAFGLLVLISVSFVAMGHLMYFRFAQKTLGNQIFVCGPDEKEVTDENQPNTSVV
Experiment: Flow cytometry of ferroportin-GFP degradation in ECR293/Fpn-GFP cells
Assay type: cell-based
Details: for hepcidin activity relative to Hep25 (in words): FIGS. 1-4; for DC50: read-out: EC50 (the source's name)
Procedure: In vitro activity may be measured by the dose-dependent loss of fluorescence of cells engineered to display ferroportin fused to green fluorescent protein as in Nemeth et al. (2006) Blood 107:328-33. Aliquots of cells are incubated for 24 hours with graded concentrations of a reference preparation of Hep25 or a mini-hepcidin. As provided herein, the EC50 values are provided as the concentration of a given compound (e.g. peptide) that elicits 50% of the maximal loss of fluorescence generated by the reference Hep25 preparation.
Mutational studies indicate that C326, the cysteine residue at position 326 of human ferroportin, is the critical residue involved in binding hepcidin. Thus, various N-terminal fragments of Hep25 containing a thiol, i.e. Hep 4-7, Hep3-7, Hep3-8, Hep3-9, Hep1-7, Hep1-8, Hep1-9, and Hep1-10 C7A, were chemically synthesized, refolded and their activities relative to Hep25 were assayed using flow-cytometric quantitation of the ferroportin-GFP degradation, iron efflux estimation based on measurements of cellular ferritin, and radioisotopic iron efflux studies.
The activity of peptides of the present invention was measured by flow cytometry as previously described. See Nemeth et al. (2006) Blood 107:328-333, which is herein incorporated by reference. ECR293/Fpn-GFP, a cell line stably transfected with a ponasterone-inducible ferroportin construct tagged at the C-terminus with green fluorescent protein was used. See Nemeth et al. (2004) Science 306:2090-2093, which is herein incorporated by reference. Briefly, the cells were plated on poly-D-lysine coated plates in the presence of 20 μM FAC, with or without 10 μM ponasterone. After 24 hours, ponasterone was washed off, and cells were treated with peptides for 24 hours. Cells were then trypsinized and resuspended at 1×10^6 cells/ml, and the intensity of green fluorescence was analyzed by flow cytometry. Flow cytometry was performed on FAC SCAN (fluorescence activated cell scanner) Analytic Flow Cytometer (Becton Dickinson, San Jose, Calif.) with […] version 3.3 software (Becton Dickinson). Cells not induced with ponasterone to express Fpn-GFP were used to establish a gate to exclude background fluorescence. Cells induced with ponasterone, but not treated with any peptides, were used as the positive control. Each peptide was tested over the range of concentrations (0, 0.01, 0.03, 0.1, 0.3, 1, 3 and 10 μM). Each peptide treatment was repeated independently 3 to 6 times. For each concentration of peptide, the results were expressed as a fraction of the maximal activity (FHep25) of Hep25 (in the dose range 0.01-10 μM), according to the formula 1−((Fx−FHep25)/(Funtreated−FHep25)), where F was the mean of the gated green fluorescence and x was the peptide.

[1] = read-out: EC50 (nM) in vitro, Table 3
[2] = Table 1, 24 h peptide treatment, 50% of maximal loss of fluorescence by Hep25
[3] = Table 1, 24 h peptide treatment, 50% of maximal loss of fluorescence by Hep25, read-out: EC50
[4] = ferroportin-GFP internalization, FIG. 3

Molecule: N=C(N)NCCC[C@@H]1NC(=O)C2CCC(CC2)CNC(=O)[C@@H](C(c2ccccc2)c2ccccc2)NC(=O)CNC(=O)[C@@H](N)CSSCCNC(=O)[C@H](C(c2ccccc2)c2ccccc2)NC(=O)C2CCN(CC2)C(=O)C2CCC(CC2)CNC1=O [PR-4] (H-CG[dDip][X2]R[X2][Inp][Dip]-Cysteamide; disulfide 1-C)
EC50 (read-out: EC50): 2000 nM

Molecule: CCCCCCCCCCCCCCCC(=O)NCCOCCOCCOCCOCCOCCOCCOCCOCCOCCOCCOCCOCCC(=O)N[C@H](Cc1ccccc1)C(=O)N[C@@H](C(=O)N[C@H](CS)C(=O)N[C@@H](C(=O)N1CCC[C@@H]1C(=O)N[C@@H](C(=O)N[C@H](Cc1c[nH]cn1)C(N)=O)C(c1ccccc1)c1ccccc1)[C@H](C)CC)[C@H](C)CC [PR49, R4-F-I-C-I-P-Dpa-H] ({Palmitoyl-PEG12}-[dF][dI][dC][dI][dP][dDip][dH]-NH2)
EC50 [1]: < 10 nM

Molecule: CCCCCCCCCCCCCCCC(=O)NCCOCCOCCOCCOCCOCCOCCOCCOCCOCCOCCOCCOCCC(=O)N[C@H](Cc1ccccc1)C(=O)N[C@H](CC(C)C)C(=O)N[C@H](CS)C(=O)N[C@H](CC(C)C)C(=O)N1CCC[C@@H]1C(=O)N[C@@H](C(=O)N[C@H](Cc1c[nH]cn1)C(=O)N[C@@H](C(=O)N[C@H](CC(=O)O)C(N)=O)[C@H](C)O)C(c1ccccc1)c1ccccc1 [PR52, R4-F-L-C-L-P-Dpa-H-T-D] ({Palmitoyl-PEG12}-[dF][dL][dC][dL][dP][dDip][dH][dT][dD]-NH2)
EC50 [1]: < 10 nM

Molecule: T2A: Hep25 with alanine substitution T2A (DAHFPICIFCCGCCHRSKCGMCCKT; disulfide (positions not given here); not fully specified (C-terminus); also: four disulfide bonds, pairing not given here; UniProt P81172 60-84, looked up, variant T2A)
hepcidin activity relative to Hep25 (in words): did not substantially impact hepcidin activity

DC50 [2]: > 3000 nM
Molecule: CC(C)(C)[C@H](NC(=O)[C@@H](N)CC(=O)O)C(=O)N[C@@H](Cc1c[nH]cn1)C(=O)N[C@H](C(=O)N1[C@H](C(=O)N[C@H](C(=O)N[C@@H](CS)C(=O)N[C@H](C(=O)N[C@@H](Cc2ccccc2)C(N)=O)C2CCCCC2)C2CCCCC2)C[C@@H]2CCCC[C@@H]21)c1ccccc1 [PR10] (H-D[Tle]H[Phg][Oic][Chg]C[Chg]F-NH2)

DC50 [2]: > 3000 nM
Molecule: CC(C)(C)[C@H](NC(=O)[C@@H](N)CC(=O)O)C(=O)N[C@@H](Cc1c[nH]cn1)C(=O)N1CCC[C@H]1C(=O)N1[C@H](C(=O)N[C@H](C(=O)N[C@@H](CS)C(=O)N[C@H](C(=O)N[C@@H](Cc2ccccc2)C(N)=O)C2CCCCC2)C2CCCCC2)C[C@@H]2CCCC[C@@H]21 [PR11] (H-D[Tle]HP[Oic][Chg]C[Chg]F-NH2)

Molecule: CC[C@H](C)[C@H](NC(=O)[C@@H]1CSSC[C@H](N)C(=O)N[C@@H](CC(=O)O)C(=O)N[C@@H]([C@@H](C)O)C(=O)N[C@@H](Cc2c[nH]cn2)C(=O)N[C@@H](Cc2ccccc2)C(=O)N2CCC[C@H]2C(=O)N[C@@H]([C@@H](C)CC)C(=O)N1)C(=O)N[C@@H](Cc1ccccc1)C(N)=O [Cyc-1] (H-CDTHFPICIF-NH2; disulfide 1-8; N-terminus assumed)
EC50 [3]: 300 nM

DC50 [2]: 80 nM
Molecule: CC[C@H](C)[C@H](NC(=O)[C@H](CS)NC(=O)[C@@H](NC(=O)[C@@H]1CCCN1C(=O)C[C@H](NC(=O)[C@H](Cc1c[nH]cn1)NC(=O)[C@@H](NC(=O)[C@@H](N)CC(=O)O)[C@@H](C)O)C(c1ccccc1)c1ccccc1)[C@@H](C)CC)C(=O)N[C@@H](Cc1ccccc1)C(N)=O [F4bhDpa] (H-DTH[X1]PICIF-NH2; N-terminus assumed)

Molecule: CCCCCCCCCCCCCCCC(=O)NCCOCCOCCOCCOCCOCCOCCOCCOCCOCCOCCOCCOCCC(=O)N[C@H](Cc1ccccc1)C(=O)N[C@@H](C(=O)N[C@H](CS)C(=O)N[C@@H](C(=O)N1CCC[C@@H]1C(=O)N[C@@H](C(=O)N[C@H](Cc1c[nH]cn1)C(=O)N[C@@H](C(=O)N[C@H](CC(=O)O)C(N)=O)[C@H](C)O)C(c1ccccc1)c1ccccc1)C(C)C)C(C)C [PR51, R4-F-V-C-V-P-Dpa-H-T-D] ({Palmitoyl-PEG12}-[dF][dV][dC][dV][dP][dDip][dH][dT][dD]-NH2)
EC50 [1]: 100 nM

EC50 [3]: 80 nM
Molecule: C[C@@H](O)[C@H](NC(=O)[C@@H](N)CC(=O)O)C(=O)N[C@@H](Cc1c[nH]cn1)C(=O)N[C@H](C(=O)N1CCC[C@H]1C(=O)N[C@@H](CS)C(=O)N[C@@H](CS)C(=O)N[C@@H](CS)C(=O)N[C@H](C(N)=O)C(c1ccccc1)c1ccccc1)C(c1ccccc1)c1ccccc1 [PR46] (H-DTH[Dip]PCCC[Dip]-NH2; N-terminus assumed)

Molecule: N=C(N)NCCC[C@@H]1NC(=O)C2CCC(CC2)CNC(=O)[C@@H](C(c2ccccc2)c2ccccc2)NC(=O)[C@@H]2CCCN2C(=O)[C@@H](N)CSSCCNC(=O)[C@H](C(c2ccccc2)c2ccccc2)NC(=O)C2CCN(CC2)C(=O)C2CCC(CC2)CNC1=O [PR-2] (H-CP[dDip][X2]R[X2][Inp][Dip]-Cysteamide; disulfide 1-C)
EC50 (read-out: EC50): 2000 nM

Molecule: CCCCCCCCCCCCCCCC(=O)NCCOCCOCCOCCOCCOCCOCCOCCOCCOCCOCCOCCOCCC(=O)N[C@@H](C(=O)N[C@@H](C(=O)N[C@H](CS)C(=O)N[C@@H](C(=O)N1CCC[C@@H]1C(=O)N[C@@H](C(=O)N[C@H](Cc1c[nH]cn1)C(=O)N[C@@H](C(=O)N[C@H](CC(=O)O)C(N)=O)[C@H](C)O)C(c1ccccc1)c1ccccc1)[C@H](C)CC)[C@H](C)CC)C(c1ccccc1)c1ccccc1 [PR48, R4-Dpa-I-C-I-P-Dpa-H-T-D] ({Palmitoyl-PEG12}-[dDip][dI][dC][dI][dP][dDip][dH][dT][dD]-NH2)
EC50 [1]: 50 nM

hepcidin activity relative to Hep25 (in words): quite active | potency relative to Hep25 on a mass basis, times less potent [4]: about 4 times | potency relative to Hep25 on a molar basis, times less potent [4]: about 10 times
Molecule: DTHFPIAIFC-NH2 [Hep10]

Molecule: CC[C@H](C)[C@H](NC(=O)[C@H](CS)NC(=O)[C@@H](NC(=O)[C@@H]1CCCN1C(=O)[C@@H](NC(=O)[C@@H](N)CC(=O)O)C(c1ccccc1)c1ccccc1)[C@@H](C)CC)C(=O)N[C@@H](Cc1ccccc1)C(N)=O [PR40] (H-D[Dip]PICIF-NH2)
EC50 (read-out: EC50, Table 1, 24 h peptide treatment, 50% of maximal loss of fluorescence by Hep25): 70 nM

Molecule: N=C(N)NCCC[C@@H]1NC(=O)C2CCC(CC2)CNC(=O)[C@@H](C(c2ccccc2)c2ccccc2)NC(=O)[C@H]2CCCN2C(=O)[C@@H](N)CSSCCNC(=O)[C@H](C(c2ccccc2)c2ccccc2)NC(=O)C2CCN(CC2)C(=O)C2CCC(CC2)CNC1=O [PR-3] (H-C[dP][dDip][X2]R[X2][Inp][Dip]-Cysteamide; disulfide 1-C)
EC50 (read-out: EC50): 1000 nM

Molecule: CCCCCCCCCCCCCCCC(=O)NCCOCCOCCOCCOCCOCCOCCOCCOCCOCCOCCOCCOCCC(=O)N[C@H](Cc1ccccc1)C(=O)N[C@@H](C(=O)N[C@H](CS)C(=O)N[C@@H](C(=O)N1CCC[C@@H]1C(=O)N[C@@H](C(=O)N[C@H](Cc1c[nH]cn1)C(=O)N[C@@H](C(=O)N[C@H](CC(=O)O)C(N)=O)[C@H](C)O)C(c1ccccc1)c1ccccc1)[C@H](C)CC)[C@H](C)CC [PR47, R4-F-I-C-I-P-Dpa-H-T-D] ({Palmitoyl-PEG12}-[dF][dI][dC][dI][dP][dDip][dH][dT][dD]-NH2)
EC50 [1]: 50 nM
